{"source": "patent US20260337153A1", "about": "“IONIZABLE AMINE LIPIDS” (Intellia Therapeutics, Inc., priority 2023, published 2026)", "key": {"rat TTR gene": {"tested_on": "rat TTR gene", "test": "In vivo editing of TTR in rat liver after LNP delivery (NGS, % editing)", "set-up": "species or system rat (Sprague-Dawley)", "protocol": "LNPs were prepared using various amine lipids in a 4-component lipid system consisting of an ionizable lipid (e.g., an amine lipid), DSPC, cholesterol and a PEG lipid (e.g., PEG2K-DMG, C13 Ether, C14 Ether). In assays for percent liver editing in rats, Cas9 mRNA and chemically modified sgRNA targeting a rat sequence were formulated in LNPs, at either a 1:1 w/w ratio or a 1:2 w/w sgRNA:Cas9 mRNA ratio.\nThe lipid components were dissolved in 100% ethanol with the lipid component molar ratios described below. The chemically modified sgRNA and Cas9 mRNA were combined and dissolved in 25 mM citrate, 100 mM NaCl, pH 5.0, resulting in a concentration of total RNA cargo of approximately 0.45 mg/mL. The LNPs were formulated with an N:P ratio of about 6, with the ratio of chemically modified sgRNA:Cas9 mRNA at either a 1:1 or 1:2 w/w ratio as described below.\nThe LNPs were formed by an impinging jet mixing of the lipid in ethanol with two volumes of RNA solution and one volume of water. First, the lipid in ethanol is mixed through a mixing cross with the two volumes of RNA solution. Then, a fourth stream of water is mixed with the outlet stream of the cross through an inline tee. (See, e.g., WO2016010840, FIG. 2). The LNPs were held for 1 hour at room temperature, and further diluted with water (approximately 1:1 v/v). Diluted LNPs were buffer exchanged into 50 mM Tris, 45 mM NaCl, 5% (w/v) sucrose, pH 7.5 (TSS) and concentrated as needed by methods known in the art. The resulting mixture was then filtered using a 0.2 μm sterile filter. The final LNP was stored at 4° C. or −80° C. until further use.\nSprague-Dawley female rats, ranging from 6-10 weeks of age were used in each study. Animals were weighed and dosed based on individual body weight measured the morning of dosing. LNPs were dosed via the lateral tail vein in a volume of 2 mL per kilogram of animal body weight. The animals were periodically observed for adverse effects for at least 24 hours post dose.\nFor studies measuring in vivo editing in liver, Sprague-Dawley female rats were dosed at 0.1 mpk or 0.03 mpk, unless otherwise noted. Animals were euthanized at 6 or 7 days by carbon dioxide asphyxiation and a heart clip or by ex sanguination via cardiac puncture under isoflourane anesthesia. Blood was collected into serum separator tubes. Liver tissue was collected. Genomic DNA was isolated from the liver tissue for editing measurement by Next-Generation Sequencing (NGS).\nIn brief, to quantitatively determine the efficiency of editing at the target location in the genome, genomic DNA was isolated and deep sequencing was utilized to identify the presence of insertions and deletions introduced by gene editing.\nPCR primers were designed around the target site (e.g., TTR), and the genomic area of interest was amplified. Additional PCR was performed according to the manufacturer's protocols (Illumina) to add the necessary chemistry for sequencing. The amplicons were sequenced on an Illumina MiSeq instrument. The reads were aligned to the […] after eliminating those having low quality scores. The resulting files containing the reads were mapped to the reference genome (BAM files), where reads that overlapped the target region of interest were selected and the number of wild type reads versus the number of reads which contain an insertion, substitution, or deletion was calculated.\nThe editing percentage (e.g., the “indel efficiency” or “percent indels” or “% editing” or “% indel”) can be defined as the total number of sequence reads with insertions or deletions over the total number of sequence reads, including wild type.\nIn vivo editing efficiency for materials delivered with formulations including various amine lipid (or ionizable lipid) compounds in Experiments 1 through 14 as described in Tables 3 and 4 was assessed. Editing was measured using G000534 (SEQ ID NO: 5) which targets the rat TTR gene. […]"}, "[1]": {"test": "pKa of unformulated amine lipid by TNS fluorescence", "type": "physicochemical", "protocol": "The pKa of each amine lipid was determined according to the method in Jayaraman, et al. (Angew Chem Int Ed Engl 51(34), 2012, 8529-8533) with the following adaptations. The pKa was determined for unformulated amine lipid in ethanol. Lipid stock solutions (2.94 mM) were diluted into Sodium Phosphate Buffers (0.1 M, Boston Bioproducts) of different pH (pH-range: 4.5-9.0) yielding a final lipid concentration of approx. 100 μM. The test samples were supplemented with TNS {6-(p-Toluidino)-2-naphthalenesulfonic acid sodium salt}, incubated and the fluorescence intensity was measured using excitation and emission wavelengths of 321 nm and 448 nm, respectively. The recorded data were normalized and the respective pKa values were derived from sigmoidal fitting."}, "[2]": {"conditions": "Experiment 7, 0.1 mpk, LNP with PEG2K-DMG"}, "[3]": {"conditions": "Experiment 14, 0.03 mpk, LNP with C13 Ether"}, "[4]": {"conditions": "sodium phosphate buffer, Table 2, unformulated amine lipid, TNS, read-out: Lipid pKa"}}, "note": "Like-named read-outs stand apart in the source and are kept apart here.", "data": [{"smiles": "CCCCCCCCOC(CCC(=O)OCC(COC(=O)CCCCCCCC)COC(=O)OCCCN(CC)CC)OCCCCCCCC", "note": "(stereo not drawn) [Compound 45, 3-((4,4-bis(octyloxy)butanoyl)oxy)-2-((((3-(diethylamino)propoxy)carbonyl)oxy)methyl)propyl Nonanoate]", "values": [{"measurement": "Mean % editing", "setting": "rat TTR gene; [2]", "value": 1.8, "unit": "%"}]}, {"smiles": "CCCCCCCCC(CCCCCCCC)C(=O)OCCCC(=O)OCC(COC(=O)CCCOC(=O)C(CCCCCCCC)CCCCCCCC)COC(=O)NCCN(CC)CC", "note": "[Compound 39, [4-[2-[2-(diethylamino)ethylcarbamoyloxymethyl]-3-[4-(2-octyldecanoyloxy)butanoyloxy]propoxy]-4-oxo-butyl]2-octyldecanoate]", "values": [{"measurement": "Mean % editing", "setting": "rat TTR gene; [3]", "value": 11.3, "unit": "%"}, {"measurement": "pKa", "setting": "[1]; [4]", "value": 6.63}]}, {"smiles": "CCCCCCCCOC(CCC(=O)OCC(COC(=O)CC(CCCC)CCCCCC)COC(=O)NCCN(CC)CC)OCCCCCCCC", "note": "(stereo not drawn) [Compound 44, 3-((4,4-bis(octyloxy)butanoyl)oxy)-2-((((2-(diethylamino)ethyl)carbamoyl)oxy)methyl)propyl 3-butylnonanoate]", "values": [{"measurement": "Mean % editing", "setting": "rat TTR gene; [2]", "value": 59.8, "unit": "%"}]}, {"smiles": "CCCCCCCCOC(CCC(=O)OCC(COC(=O)CCCCCCCC)COC(=O)NCCN(CC)CC)OCCCCCCCC", "note": "(stereo not drawn) [Compound 46, 3-((4,4-bis(octyloxy)butanoyl)oxy)-2-((((2-(diethylamino)ethyl)carbamoyl)oxy)methyl)propyl Nonanoate]", "values": [{"measurement": "Mean % editing", "setting": "rat TTR gene; [2]", "value": 0.2, "unit": "%"}]}, {"smiles": "CCCCCCCCOC(CCC(=O)OCC(COC(=O)OCCCN(CC)CC)COC(=O)C(CCCC)CCCCCC)OCCCCCCCC", "note": "(stereo not drawn) [Compound 47, 3-((4,4-bis(octyloxy)butanoyl)oxy)-2-((((3-(diethylamino)propoxy)carbonyl)oxy)methyl)propyl 2-butyloctanoate]", "values": [{"measurement": "Mean % editing", "setting": "rat TTR gene; [2]", "value": 56.3, "unit": "%"}]}, {"smiles": "CCCCCCCCC(CCCCCCCC)OC(=O)CCCCCC(=O)OCC(COC(=O)CCCCCC(=O)OC(CCCCCCCC)CCCCCCCC)COC(=O)NCCN(CC)CC", "note": "[Compound 38, O′1,O1-(2-((((2-(diethylamino)ethyl)carbamoyl)oxy)methyl)propane-1,3-diyl) 7,7′-di(heptadecan-9-yl) di(heptanedioate)]", "values": [{"measurement": "Mean % editing", "setting": "rat TTR gene; [3]", "value": 19.4, "unit": "%"}, {"measurement": "pKa", "setting": "[1]; [4]", "value": 6.56}]}, {"smiles": "CCCCCCCCC(CCCCCCCC)OC(=O)CCCCC(=O)OCC(COC(=O)CCCCC(=O)OC(CCCCCCCC)CCCCCCCC)COC(=O)OCCCN1CCCC1", "note": "[Compound 69, di(heptadecan-9-yl) O,O′-(2-((((3-(pyrrolidin-1-yl)propoxy)carbonyl)oxy)methyl)propane-1,3-diyl) diadipate]", "values": [{"measurement": "Mean % editing in rat liver", "setting": "rat TTR gene; NGS, dose 0.03 mpk, LNP with G000534 sgRNA and Cas9 mRNA 1:2 w/w, 3% C13 Ether (Compound 53: 3% PEG2K-DMG), N=5 (Compound 33: N=4)", "value": 7.3, "unit": "%"}, {"measurement": "pKa", "setting": "[1]; read-out: pKa", "value": 6.4}]}, {"smiles": "CCCCC/C=C\\C/C=C\\CCCCCCCC(=O)OCC(COC(=O)CCCC(=O)OC(CCCCCCCC)CCCCCCCC)COC(=O)OCC1CCCN(CC)C1", "note": "(stereo not drawn) [Compound 62, 3-((((1-ethylpiperidin-3-yl)methoxy)carbonyl)oxy)-2-((((9Z,12Z)-octadeca-9,12-dienoyl)oxy)methyl)propyl heptadecan-9-yl glutarate]", "values": [{"measurement": "Mean % editing", "setting": "rat TTR gene; Table 8, 0.03 mpk, LNP with C13 Ether", "value": 28.0, "unit": "%"}]}, {"smiles": "CCCCC/C=C\\C/C=C\\CCCCCCCC(=O)OCC(CCCCCCCCC(=O)OC(CCCC)CCCC)COC(=O)OCCCN(CC)CC", "note": "(stereo not drawn) [Compound 21, 2-((((3-(diethylamino)propoxy)carbonyl)oxy)methyl)-11-(nonan-5-yloxy)-11-oxoundecyl (9Z,12Z)-octadeca-9,12-dienoate]", "values": [{"measurement": "pKa", "setting": "[1]; [4]", "value": 6.2}]}]}
